Data as given in paper PMC12799587, “Predicting compounds that interact with the 2 known agonist-induced conformations of the human β1-adrenoceptor” (Molecular Pharmacology, 2025).
Several values for one entry are separate records, joined by “and”; a condition that tells them apart may be missing. Identical values can stand only once. Like-named read-outs stand apart in the source and are kept apart here.

What was measured:
CHO-CRE-SPAP cells = details: no transfected receptor, as previously reported; cited from earlier work
β1-AR [1] = molecular target: T1, β1-AR (Homo sapiens, UniProt P08588); assay: CRE-luciferase production in CHO-β1-CRE-luciferase cells; details: for EC50: Log EC50, agonist action; for Log ratio of affinities: catecholamine vs secondary conformation; for % isop: response compared to 10 μM isoprenaline; for Log KD Secondary Conformation, CGP12177 as agonist: rightward shift of CGP12177 response
β1-V189T-L195Q-W199Y [2] = molecular target: T2, β1-V189T-L195Q-W199Y (Homo sapiens, UniProt P08588, L195Q/V189T/W199Y); assay: 3H-CGP12177 whole-cell binding in stable mixed populations of CHO cells expressing β1-V189T-L195Q-W199Y
Description: (§8) Clonal cell lines of Chinese hamster ovary (CHO)-K1 cells (RIDD: CVCL_0214) stably transfected with the wild-type human β1-AR and a CRE-luciferase reporter gene (CHO-β1-CRE-luc), cells stably transfected with the human β1- or β2-AR and CRE-SPAP reporter gene (CHO-β1-CRE-SPAP, CHO β2-CRE-SPAP), and cells expressing the CRE-SPAP reporter gene but with no transfected receptor (CHO-CRE-SPAP) were used.[19]^,[23]
(§9) Briefly, cells were grown to confluence in tissue-culture-treated white-sided 96-well view plates. […] A white bottom was applied to convert the wells to white-bottomed, white-sided wells, 100 μL Microscint 20 was then added to each well, and a clear sealant top was applied. The plates left for at least 8 hours in the dark before being counted on a Topcount for 2 minutes per well.
(§10) The affinity of the other ligands was determined from competition binding.

β1-WT [3] = molecular target: T3, β1-WT (Homo sapiens, UniProt P08588); assay: 3H-CGP12177 whole-cell binding in stable mixed populations of CHO cells expressing β1-WT
Description: as §8, §9, §10

β1-AR [4] = molecular target: T1, β1-AR; assay: 3H-CGP12177 whole-cell binding in CHO-β1-CRE-SPAP cells
Description: as §9

β1-AR [5] = molecular target: T1, β1-AR; assay: Summary of pharmacological outcome at the β1-AR (CHO-β1-luciferase or CHO-β1-SPAP cells); details: for Evidence of SCE activation: evidence A–D as outlined in the Introduction, CHO-β1-luciferase or CHO-β1-SPAP cells; for Pharmacological Outcome: CCE/IBS conformation / Pharmacological Outcome: SCE conformation: β1-AR, summary
Description: Briefly, at 24 hours, the media was removed and 100 μL sfm added to each well (to serum starve the cells) for a second 24 hours before experimentation.

β1-WT [6] = molecular target: T3, β1-WT; assay: CRE-SPAP production in stable mixed populations of CHO cells expressing β1-WT; type: cell-based; set-up: expressed in transfected cells; details: for EC50: biphasic concentration response
Description: (§1) Selection antibiotics were then removed.
(§2) Many agonist responses were best described by a one-site sigmoidal agonist concentration-response curve.
(§3) Where clear partial agonism was present (eg, Fig. 3D), the partial agonist affinity was calculated by the method of Stephenson[40] using equation 7.
(§4) (7) KDpartialagonist=Y×P/1-YwhereY=A2-A1/A3 where [P] is the concentration of the partial agonist, [A1] is the concentration of the agonist at the point where the fixed partial agonist causes the same response, [A2] is the concentration of agonist causing a given response above that achieved by the partial agonist, and [A3] is the concentration of the agonist, in the presence of the partial agonist, causing the same stimulation as [A2].
(§5) where N is the percentage of site 1, [A] is the concentration of agonist, and EC1_50 and EC2_50 are the respective EC50 values for the 2 agonist sites.

β1-V189T-L195Q-W199Y [7] = molecular target: T2, β1-V189T-L195Q-W199Y; assay: CRE-SPAP production in stable mixed populations of CHO cells expressing β1-V189T-L195Q-W199Y; type: cell-based; set-up: expressed in transfected cells
Description: as §1, §2, §3, §4

β1-AR [8] = molecular target: T1, β1-AR; assay: CRE-SPAP production in CHO-β1-CRE-SPAP cells; type: cell-based; set-up: expressed in transfected cells; host or cells: CHO-K1 clonal lines (CHO-β1-CRE-luc, CHO-β1-CRE-SPAP); details: for EC50: read-out: Log EC50 (converted); for % Isoprenaline: response compared with 10 μM isoprenaline
Description: as §2
(§6) In experiments where 3 different fixed concentrations of the same antagonist were used, Schild plots were constructed using equation (6):(6) logDR-1=logB-logKD
(§7) These points were then fitted to a straight line. A slope of 1 then indicates competitive antagonism.[39]
as §3, §4, §5

human β2-AR [9] = molecular target: T4, human β2-AR (Homo sapiens, UniProt P07550); assay: CRE-SPAP production in CHO-β2-CRE-SPAP cells; type: cell-based; set-up: expressed in transfected cells; host or cells: CHO-K1 clonal line (CHO-β2-CRE-SPAP); details: for % Isoprenaline: response compared with 10 μM isoprenaline; for Log ratio of affinities: cimaterol vs CGP12177 as agonist
Description: as §2, §6, §7, §3, §4

human β2-AR [10] = molecular target: T4, human β2-AR; assay: 3H-CGP12177 whole-cell binding in CHO-β2-CRE-SPAP cells; details: for β2-Selectivity: β2 over β1 affinity from whole-cell binding
Description: as §9

[11] = CHO-β1-CRE-luciferase cells, given as log EC50 (negative)
[12] = agonist action, CHO-β1-CRE-SPAP cells
[13] = Log KD (Cimaterol as Agonist), rightward shift of cimaterol response, Gaddum, or Stephenson (a)
[14] = CHO-β1-CRE-luciferase cells, Gaddum, or Stephenson for partial agonists (a)
[15] = Log KD (CGP12177 as Agonist), rightward shift of CGP12177 response

T2 sequence (P08588 whole entry V189T/L195Q/W199Y): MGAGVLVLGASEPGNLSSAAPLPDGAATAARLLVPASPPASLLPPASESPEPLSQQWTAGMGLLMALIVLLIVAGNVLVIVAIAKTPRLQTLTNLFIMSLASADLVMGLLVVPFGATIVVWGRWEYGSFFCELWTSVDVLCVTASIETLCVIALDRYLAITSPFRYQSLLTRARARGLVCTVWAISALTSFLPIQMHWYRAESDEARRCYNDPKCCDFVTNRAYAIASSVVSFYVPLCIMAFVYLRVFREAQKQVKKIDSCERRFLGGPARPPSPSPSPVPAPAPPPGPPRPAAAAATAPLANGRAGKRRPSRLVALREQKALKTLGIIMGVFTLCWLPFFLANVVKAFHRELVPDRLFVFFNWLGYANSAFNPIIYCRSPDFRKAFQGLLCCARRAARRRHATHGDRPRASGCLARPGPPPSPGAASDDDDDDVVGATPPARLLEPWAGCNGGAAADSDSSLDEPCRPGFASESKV
T4 sequence (P07550 whole entry): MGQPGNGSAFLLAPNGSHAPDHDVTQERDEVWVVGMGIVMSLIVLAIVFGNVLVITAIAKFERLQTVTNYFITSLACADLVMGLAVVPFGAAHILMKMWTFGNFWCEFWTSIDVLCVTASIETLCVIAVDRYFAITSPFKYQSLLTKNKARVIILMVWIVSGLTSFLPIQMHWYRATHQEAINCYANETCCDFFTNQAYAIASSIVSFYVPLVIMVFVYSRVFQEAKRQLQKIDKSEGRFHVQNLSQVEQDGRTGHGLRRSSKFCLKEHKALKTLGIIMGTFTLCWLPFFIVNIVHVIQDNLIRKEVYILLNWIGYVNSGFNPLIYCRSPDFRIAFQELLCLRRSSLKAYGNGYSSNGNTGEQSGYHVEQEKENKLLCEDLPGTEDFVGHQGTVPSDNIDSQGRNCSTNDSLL
T1 sequence (P08588 whole entry): as the sequence (P08588 whole entry V189T/L195Q/W199Y) above, with T189V, Q195L, Y199W counted along it
T3 sequence (P08588 whole entry): as the sequence (P08588 whole entry V189T/L195Q/W199Y) above, with T189V, Q195L, Y199W counted along it

| SMILES | CRE-SPAP response (CHO-CRE-SPAP cells) | EC50 (β1-AR [1]; [11]) [nM] | Log ratio of affinities (β1-AR [1]; CHO-β1-CRE-luciferase cells) | % isop (β1-AR [1]; CHO-β1-CRE-luciferase cells) | Kd (β1-AR [4]) [nM] | Evidence of SCE activation (β1-AR [5]) | Pharmacological Outcome: CCE/IBS conformation (β1-AR [5]) | EC50 (β1-AR [8]; [12]) [nM] | % Isoprenaline (β1-AR [8]; CHO-β1-CRE-SPAP cells) | Kd (human β2-AR [9]; [13]) [nM] | EC50 (human β2-AR [9]; agonist action) [nM] | % Isoprenaline (human β2-AR [9]) [%] | Kd (human β2-AR [10]) [nM] | β2-Selectivity (human β2-AR [10]) [fold] | also measured |
| --- | --- | --- | --- | --- | --- | --- | --- | --- | --- | --- | --- | --- | --- | --- | --- |
| CC(C)(C)NCC(O)COc1cccc2[nH]c(=O)[nH]c12 (stereo not shown) [CGP12177, 4-[3-(tert-butylamino)-2-hydroxypropoxy]-1,3-dihydrobenzimidazol-2-one] | no responses |  |  |  |  |  |  |  |  |  |  |  |  |  |  |
| Cn1cc(C(F)(F)F)nc1-c1ccc(OCC(O)CNCCOc2ccc(O)c(C(N)=O)c2)cc1 (stereo not shown) [CGP20712A] | no responses |  |  |  |  |  |  |  |  |  |  |  |  |  |  |
| CC(C)NCC(O)c1ccc(N)c(C#N)c1 (stereo not shown) [Cimaterol, 2-amino-5-[1-hydroxy-2-(propan-2-ylamino)ethyl]benzonitrile] | no responses |  |  |  |  |  |  |  |  |  |  |  |  |  |  |
| Cc1ccc(OCC(O)C(C)NC(C)C)c2c1CCC2 (stereo not shown) [ICI118551] | no responses |  |  |  |  |  |  |  |  |  |  |  |  |  |  |
| Cc1cc2c(OC[C@@H](O)CNC(C)(C)C)cccc2[nH]1 [VL01, (2S)-1-(tert-butylamino)-3-[(2-methyl-1H -indol-4-yl)oxy]propan-2-ol] |  | 166 | 3.55 | 20% and 19.7 ± 2.4% | 0.355 | ABCD | High-affinity neutral antagonist | 2.75 | 70% and 69.6 ± 2.5% | 0.00832 | 0.141 | 52.1 ± 3.5 | 0.0295 | 12.0 | Kd (β1-V189T-L195Q-W199Y [2]): 0.275 nM; Kd (β1-WT [3]): 0.141 nM; Pharmacological Outcome: SCE conformation (β1-AR [5]): Agonist; % at EC501 (β1-WT [6]; % of the response occurring via first component, β1-WT): 49.0 ± 2.3%; EC50 (β1-WT [6]; β1-WT, read-out: EC501 (log EC50 of first component) (converted)): 0.224 nM; EC50 (β1-WT [6]; β1-WT, read-out: EC502 (log EC50 of second component) (converted)): 200 nM; Kd (β1-WT [6]; read-out: Log KD, CRE-SPAP production β1-WT (converted)): 0.0575 nM; % Isoprenaline (β1-WT [6]; response compared to 10 μM isoprenaline, β1-WT): 42.9 ± 3.0%; EC50 (β1-V189T-L195Q-W199Y [7]; agonist action, β1-V189T-L195Q-W199Y stable mixed populations): 0.257 nM; Kd (β1-V189T-L195Q-W199Y [7]; read-out: Log KD, CRE-SPAP production β1-V189T-L195Q-W199Y (converted)): 0.0813 nM; % Isoprenaline (β1-V189T-L195Q-W199Y [7]; response compared to 10 μM isoprenaline, β1-V189T-L195Q-W199Y): 30.4 ± 1.3%; Kd (β1-AR [8]): 0.0676 nM |
| COc1ccc(OCC(O)CNCCc2c[nH]c3ccccc23)cc1 (stereo not shown) [VL06, 1-[2-(1H -indol-3-yl)ethylamino]-3-(4-methoxyphenoxy)propan-2-ol] |  | 1410 | >1.46 | 2.7 ± 0.8% | 1120 | None | Agonist | 339 | 53.6 ± 3.1% | 457 | 363 | 15.2 ± 1.2 | 977 | 1.1 | Kd (β1-AR [1]): 347 nM; Log KD Secondary Conformation, CGP12177 as agonist (β1-AR [1]; [14]): No shift 10 μM; Kd (human β2-AR [9]; [15]): 1170 nM; Log ratio of affinities (human β2-AR [9]): 0.41 |
| O[C@H](CNCCc1c[nH]c2ccccc12)COc1ccc(F)cc1 [VL10, (2R)-1-(4-fluorophenoxy)-3-[2-(1H -indol-3-yl)ethylamino]propan-2-ol] |  | 155 | 1.64 | 14% and 13.8 ± 1.5% | 186 | None | Agonist | 18.6 | 67% and 66.9 ± 2.5% | 37.2 | 39.8 | 28.7 ± 2.0 | 89.1 | 2.1 | Kd (β1-AR [8]): 117 nM; Kd (human β2-AR [9]; [15]): 138 nM; Log ratio of affinities (human β2-AR [9]): 0.57 |
| Cc1ccc(OCC(O)CNC(C)C)cc1 (stereo not shown) [VL13, 1-(4-methylphenoxy)-3-(propan-2-ylamino)propan-2-ol] |  |  |  |  |  | None | No receptor interaction |  |  |  |  |  |  |  | Log EC50 (β1-AR [1]; agonist action, CHO-β1-CRE-luciferase cells, given as log EC50 (negative)): No response; Log KD Secondary Conformation, CGP12177 as agonist (β1-AR [1]; [14]): No shift 10 μM; Log KD Catecholamine conformation Cimaterol as Agonist (β1-AR [1]; rightward shift of cimaterol response, CHO-β1-CRE-luciferase cells, Gaddum, or Stephenson for partial agonists (a)): No shift at 10 μM; Log KD β1 (β1-AR [4]; competition with 3H-CGP12177, CHO-β1-CRE-SPAP cells, mean ± s.e.mean, given as log KD (negative)): No binding to 100 μM; Pharmacological Outcome: SCE conformation (β1-AR [5]): No receptor interaction; Log EC50 (β1-AR [8]; [12]): No response; Log KD Secondary Conformation, CGP12177 as agonist (β1-AR [8]; rightward shift of CGP12177 response, CHO-β1-CRE-SPAP cells): No shift 10 μM; Log KD Catecholamine conformation Cimaterol as Agonist (β1-AR [8]; rightward shift of cimaterol response, CHO-β1-CRE-SPAP cells, Gaddum, or Stephenson (a)): No shift 10 μM; Log EC50 (human β2-AR [9]; agonist action): No response; Log KD (CGP12177 as Agonist) (human β2-AR [9]; rightward shift of CGP12177 response): No shift 10 μM; Log KD (Cimaterol as Agonist) (human β2-AR [9]; rightward shift of cimaterol response, Gaddum, or Stephenson (a)): No shift 10 μM; Log KD β2 (human β2-AR [10]; competition with 3H-CGP12177, CHO-β2-CRE-SPAP cells, mean ± s.e.mean, given as log KD (negative)): No binding to 100 μM |
